Laboratory results reported in patent publication US20210275692A1, “SOLUTION COMPRISING FLUORESCENT DYE AS FIDUCIAL MARKER” (DANMARKS TEKNISKE UNIVERSITET, priority 2018, published 2021).

test: UVvis maximum absorption wavelength of selected dyes (Table 1); assay type: physicochemical; conditions: source not stated

Row | Molecule | UVvis maximum [nm]
1 | 2,11,20,29-Tetra-tert-butyl-2,3-naphthalocyanine | 712
2 | CCCCOc1ccc(OCCCC)c2c1-c1nc3nc(nc4[nH]c([nH]c5nc(nc-2n1)-c1c(OCCCC)ccc(OCCCC)c1-5)c1c(OCCCC)ccc(OCCCC)c41)-c1c(OCCCC)ccc(OCCCC)c1-3 [1,4,8,11,15,18,22,25-Octabutoxy-29H,31H-phthalocyanine] | 762
3 | CCC1=C(CC)c2cc3[nH]c(cc4nc(cc5[nH]c(cc1n2)c(CC)c5CC)C(CC)=C4CC)c(CC)c3CC [2,3,7,8,12,13,17,18-Octaethyl-21H,23H-porphine] | 401
4 | CCCCCCCCOc1cc2c(cc1OCCCCCCCC)-c1nc-2nc2[nH]c(nc3nc(nc4[nH]c(n1)c1cc(OCCCCCCCC)c(OCCCCCCCC)cc41)-c1cc(OCCCCCCCC)c(OCCCCCCCC)cc1-3)c1cc(OCCCCCCCC)c(OCCCCCCCC)cc21 [2,3,9,10,16,17,23,24-Octakis(octyloxy)-29H,31H-phthalocyanine] | 701
5 | CC(C)(C)c1ccc2c(c1)-c1nc3nc(nc4[nH]c(nc5[nH]c(nc-2n1)c1cc(C(C)(C)C)ccc51)c1cc(C(C)(C)C)ccc41)-c1ccc(C(C)(C)C)cc1-3 [2,9,16,23-Tetra-tert-butyl-29H,31H-phthalocyanine] | 696
6 | CCCCOc1c2c(c(OCCCC)c3ccccc13)-c1nc-2nc2[nH]c(nc3nc(nc4[nH]c(n1)c1c(OCCCC)c5ccccc5c(OCCCC)c41)-c1c-3c(OCCCC)c3ccccc3c1OCCCC)c1c(OCCCC)c3ccccc3c(OCCCC)c21 [5,9,14,18,23,27,32,36-Octabutoxy-2,3-naphthalocyanine] | 784
7 | C1=Cc2nc1c(-c1ccccc1)c1ccc([nH]1)c(-c1ccccc1)c1nc(c(-c3ccccc3)c3ccc([nH]3)c2-c2ccccc2)C=C1 [5,10,15,20-Tetraphenyl-21H,23H-porphine] | 514
8 | C#CCNC(=O)CCCCCN1C(=CC=CC=CC2=[N+](C)c3ccccc3C2(C)C)C(C)(C)c2ccccc21.[Cl-] [Cy5-alkyne] | 646

Next, values leading:

Row | UVvis maximum [nm] | Molecule
9 | 684 | C#CCNC(=O)CCCCCN1C(=CC=CC=CC2=[N+](C)c3ccc4ccccc4c3C2(C)C)C(C)(C)c2c1ccc1ccccc21.[Cl-] [Cy5.5-alkyne]
10 | 788 | C#CCNC(=O)CCCCCN1/C(=C/C=C2C=C(/C=C/C3=[N+](C)c4ccc5ccccc5c4C3(C)C)CCC/2)C(C)(C)c2c1ccc1ccccc21.[Cl-] [Cy7.5-alkyne]
11 | 698 | c1ccc2c(c1)-c1nc-2nc2[nH]c(nc3nc(nc4[nH]c(n1)c1ccccc41)-c1ccccc1-3)c1ccccc21 [Phthalocyanine]
12 | 750 | Cy7-alkyne

test: Spectroscopic characterization of SSIB-Cy7.5 in SAIB or LOIB markers; assay type: physicochemical; conditions: 0.01% w/w in LOIB:xSAIB:EtOH:D&Cv2

Row | broad emission peak centre [nm] | Molecule
13 | 845 | 6′-(Cyanine 7.5)-Isobutyric Sucrose [SSIB-Cy7.5]

same assay, conditions: SAIB:xSAIB:EtOH 70:10:20

Row | dye concentration up to which emission intensity increased (then self-quenching) [% w/w] | Molecule
14 | 0.003 | 6′-(Cyanine 7.5)-Isobutyric Sucrose [SSIB-Cy7.5]

same assay, conditions: UVvis in LOIB:xSAIB:EtOH:D&Cv2; 0.1% w/w D&Cv2, 0.01% w/w SSIB-Cy7.5

Row | absorption peak [nm] | Molecule
15 | 590 | Cc1ccc(Nc2ccc(O)c3c2C(=O)c2ccccc2C3=O)cc1 [D&Cv2]
